Values quoted from earlier work as cited in patent US20120183587A1, “FLAVONOL COMPOSITIONS” (priority 2011, published 2012).

Settings: Guglen et al., Eur. J. Clin. Pharmacol. 1975

SMILES: O=c1c(O)c(-c2ccc(O)c(O)c2)oc2cc(O)cc(O)c12 [quercetin, 3,3′,4′,5,7-pentahydroxy-2-phenylchromen-4-one]
- extent of absorption from an oral dose: about 1%
